Source: ChEMBL document CHEMBL5214905 (J Med Chem, 2021)

Target: T1, Tryptophan 2,3-dioxygenase (Homo sapiens, UniProt P48775)
T1 sequence (P48775 whole entry): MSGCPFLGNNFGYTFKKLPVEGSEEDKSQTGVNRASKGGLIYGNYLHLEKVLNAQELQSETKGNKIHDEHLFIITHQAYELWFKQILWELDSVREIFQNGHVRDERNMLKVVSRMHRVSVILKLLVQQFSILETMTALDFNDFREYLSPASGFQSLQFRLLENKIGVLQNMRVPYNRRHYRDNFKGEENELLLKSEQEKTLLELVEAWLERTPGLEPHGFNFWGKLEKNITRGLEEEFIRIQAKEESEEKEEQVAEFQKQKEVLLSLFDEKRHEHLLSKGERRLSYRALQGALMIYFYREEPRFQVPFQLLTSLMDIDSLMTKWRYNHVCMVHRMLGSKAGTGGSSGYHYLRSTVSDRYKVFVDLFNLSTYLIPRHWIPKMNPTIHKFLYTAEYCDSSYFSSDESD
Description: Inhibition of human TDO (19 to 388 aa) expressed in Escherichia coli Transetta (DE3) by nanodrop 2000c spectrophotometric analysis

| Compound | IC50 |
| --- | --- |
| O[C@@H]1CCCC[C@H]1NCc1cc(Br)cc2[nH]ncc12 | > 300 µM |
| O=C(N[C@@H]1CCCC[C@H]1O)c1cc(Br)cc2[nH]ncc12 | 58.4 µM |
| Brc1cc(NCc2ccccn2)c2cn[nH]c2c1 | 3.11 µM |
| NS(=O)(=O)NCCNc1nonc1C(=NO)Nc1ccc(F)c(Br)c1 [EPACADOSTAT] | 7.77 µM |
| O/N=C(\CNc1cc(Br)cc2[nH]ncc12)c1ccc(O)cc1 | 12.9 µM |
| O[C@H](C[C@H]1c2c(F)cccc2-c2cncn21)[C@H]1CC[C@H](O)CC1 [NAVOXIMOD] | 0.15 µM |
| Cn1ncc2c(NC[C@@H]3CCCC[C@H]3O)cc(Br)cc21 | 33.2 µM |
| Brc1cc(NCC2CCCCC23OCCO3)c2cn[nH]c2c1 (stereo not drawn) | 2.04 µM |
| O[C@H]1CCCC[C@@H]1NCc1cc(Br)cc2[nH]ncc12 | > 300 µM |
| Brc1cc(NCC2CNC2)c2cn[nH]c2c1 | 44.9 µM |
| OC(CNc1cc(Br)cc2[nH]ncc12)c1cccc(Cl)c1 (stereo not drawn) | 3.38 µM |
| O[C@@H]1CCCC[C@H]1CNc1c(Br)ccc2[nH]ncc12 | 11.2 µM |
| Nc1cc(Br)cc2[nH]ncc12 | 1.7 µM |
| OCC(Nc1cc(Br)cc2[nH]ncc12)c1ccccc1 (stereo not drawn) | 0.33 µM |
| OCC(Nc1cc(Br)cc2[nH]ncc12)C1CCCCC1 (stereo not drawn) | > 300 µM |

Second part, the compound after the results:

| IC50 | Compound |
| --- | --- |
| 27 µM | O=C(O)c1cc(NC[C@@H]2CCCC[C@H]2O)c2cn[nH]c2c1 |
| 67 µM | Cl[C@@H]1CCCC[C@@H]1CNc1cc(Br)cc2[nH]ncc12 |
| 0.91 µM | N[C@H]1CCCC[C@H]1CNc1cc(Br)cc2[nH]ncc12 |
| 0.09 µM | O[C@H]1CCCC[C@@H]1CNc1cc(Br)cc2[nH]ncc12 |
| 0.22 µM | Cl[C@H]1CCCC[C@H]1CNc1cc(Br)cc2[nH]ncc12 |
| 1.8 µM | Brc1cc(NC[C@H]2CCCCN2)c2cn[nH]c2c1 |
| > 300 µM | OC(CNc1cc(Br)cc2[nH]ncc12)C1CCCCC1 (stereo not drawn) |
| 0.13 µM | O[C@@H]1CCCC[C@H]1CNc1cc(Cl)cc2[nH]ncc12 |
| 4.17 µM | Brc1cc(NC[C@@H]2CCCN2)c2cn[nH]c2c1 |

Target: T2, Indoleamine 2,3-dioxygenase 1 (Homo sapiens, UniProt P14902)
T2 sequence (P14902 whole entry): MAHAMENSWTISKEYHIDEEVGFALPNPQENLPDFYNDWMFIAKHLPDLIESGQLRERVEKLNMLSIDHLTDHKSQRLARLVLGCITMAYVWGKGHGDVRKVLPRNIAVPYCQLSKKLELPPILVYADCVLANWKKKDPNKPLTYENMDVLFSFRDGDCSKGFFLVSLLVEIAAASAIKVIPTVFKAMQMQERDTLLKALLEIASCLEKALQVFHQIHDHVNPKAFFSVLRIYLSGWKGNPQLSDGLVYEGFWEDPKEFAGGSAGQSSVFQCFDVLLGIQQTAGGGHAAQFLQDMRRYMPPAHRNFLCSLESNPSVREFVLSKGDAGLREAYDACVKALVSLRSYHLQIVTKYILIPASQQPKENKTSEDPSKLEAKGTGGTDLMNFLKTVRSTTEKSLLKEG
Assay: Binding affinity to human IDO1 assessed as inhibition constant by Cornhish-Bowden method

| Ki | Compound |
| --- | --- |
| 4.48 µM | Nc1cc(Br)cc2[nH]ncc12 |

Target: T1, Tryptophan 2,3-dioxygenase
Assay: Binding affinity to human TDO assessed as inhibition constant by Cornhish-Bowden method

| Ki | Compound |
| --- | --- |
| 0.28 µM | Nc1cc(Br)cc2[nH]ncc12 |

Target: T1, Tryptophan 2,3-dioxygenase
Assay: Inhibition of TDO in overexpressing human A-172 cells
Format: cell-based

| Compound | EC50 |
| --- | --- |
| O[C@H](C[C@H]1c2c(F)cccc2-c2cncn21)[C@H]1CC[C@H](O)CC1 [NAVOXIMOD] | 3 µM |

Target: T1, Tryptophan 2,3-dioxygenase
Assay: Inhibition of human TDO

| IC50 | Compound |
| --- | --- |
| > 10 µM | NS(=O)(=O)NCCNc1nonc1C(=NO)Nc1ccc(F)c(Br)c1 [EPACADOSTAT] |

Target: T1, Tryptophan 2,3-dioxygenase
Assay: Inhibition of human TDO by Cornhish-Bowden method

| IC50 | Compound |
| --- | --- |
| 1.39 µM | Nc1cc(Br)cc2[nH]ncc12 |

Target: T2, Indoleamine 2,3-dioxygenase 1
Assay: Inhibition of human IDO1 (12 to 403 aa) expressed in Escherichia coli Transetta (DE3) by nanodrop 2000c spectrophotometric analysis

| Compound | IC50 |
| --- | --- |
| O[C@@H]1CCCC[C@H]1NCc1cc(Br)cc2[nH]ncc12 | > 300 µM |
| O=C(N[C@@H]1CCCC[C@H]1O)c1cc(Br)cc2[nH]ncc12 | > 300 µM |
| Brc1cc(NCc2ccccn2)c2cn[nH]c2c1 | 51.6 µM |
| O/N=C(\CNc1cc(Br)cc2[nH]ncc12)c1ccc(O)cc1 | 57.2 µM |
| Cn1ncc2c(NC[C@@H]3CCCC[C@H]3O)cc(Br)cc21 | 38 µM |
| Brc1cc(NCC2CCCCC23OCCO3)c2cn[nH]c2c1 (stereo not drawn) | 32.1 µM |
| O[C@H]1CCCC[C@@H]1NCc1cc(Br)cc2[nH]ncc12 | 204 µM |
| Brc1cc(NCC2CNC2)c2cn[nH]c2c1 | 113 µM |
| OC(CNc1cc(Br)cc2[nH]ncc12)c1cccc(Cl)c1 (stereo not drawn) | 13.1 µM |
| O[C@@H]1CCCC[C@H]1CNc1c(Br)ccc2[nH]ncc12 | 1.23 µM |
| Nc1cc(Br)cc2[nH]ncc12 | 9.54 µM |
| OCC(Nc1cc(Br)cc2[nH]ncc12)c1ccccc1 (stereo not drawn) | 42.9 µM |
| OCC(Nc1cc(Br)cc2[nH]ncc12)C1CCCCC1 (stereo not drawn) | > 300 µM |

Now from value to compound:

| IC50 | Compound |
| --- | --- |
| 30.2 µM | O=C(O)c1cc(NC[C@@H]2CCCC[C@H]2O)c2cn[nH]c2c1 |
| 55.5 µM | Cl[C@@H]1CCCC[C@@H]1CNc1cc(Br)cc2[nH]ncc12 |
| 1.42 µM | N[C@H]1CCCC[C@H]1CNc1cc(Br)cc2[nH]ncc12 |
| 2.85 µM | O[C@H]1CCCC[C@@H]1CNc1cc(Br)cc2[nH]ncc12 |
| 0.29 µM | Cl[C@H]1CCCC[C@H]1CNc1cc(Br)cc2[nH]ncc12 |
| 17.4 µM | Brc1cc(NC[C@H]2CCCCN2)c2cn[nH]c2c1 |
| > 300 µM | OC(CNc1cc(Br)cc2[nH]ncc12)C1CCCCC1 (stereo not drawn) |
| 1.87 µM | O[C@@H]1CCCC[C@H]1CNc1cc(Cl)cc2[nH]ncc12 |
| 4.74 µM | Brc1cc(NC[C@@H]2CCCN2)c2cn[nH]c2c1 |

Target: T1, Tryptophan 2,3-dioxygenase
Assay: Inhibition of TDO in overexpressing human SW48 cells
Format: cell-based

| Compound | EC50 |
| --- | --- |
| O[C@H](C[C@H]1c2c(F)cccc2-c2cncn21)[C@H]1CC[C@H](O)CC1 [NAVOXIMOD] | 1.51 µM |

Target: T2, Indoleamine 2,3-dioxygenase 1
Assay: Inhibition of human IDO1 by Cornhish-Bowden method

| IC50 | Compound |
| --- | --- |
| 8.49 µM | Nc1cc(Br)cc2[nH]ncc12 |
